Laboratory results from article PMC7203245, “Lacosamide intake during pregnancy increases the incidence of foetal malformations and symptoms associated with schizophrenia in the offspring of mice” (Scientific Reports, 2020).

Test: LCM and related compounds (RC) in embryos and mothers' serum by high-resolution MS/MSe
Assay type: in vivo, mice
Details: for presence in the serum of mothers: dams given 10-120 mg/kg LCM
Method: Samples were extracted as described previously[25] with slight modifications. Briefly, embryos were rinsed with cold saline and ultrapure water, and their wet-weight was determined. […] The mixture was vortexed vigorously for 3 min and centrifuged at 13,000 g for 5 min. The supernatant was transferred to a new Eppendorf tube and evaporated to dryness in a stream of nitrogen gas. The residue was reconstituted with 50 µL of LC-MS Ultrapure water, vortexed for 20 s and centrifuged at 13,000 g for 5 min. The supernatant was transferred to a conic micro insert to be injected onto the UHPLC system.
MS spectra data were collected between m/z 50 and 1000, and MS/MS spectra were registered between 50-300 Da. […] The MS^e procedure was used to identify metabolites in positive ionization mode. UPLC–QTOF-MS^e detection collects data using two scan functions, providing fragment ion information without precursor ion selection. A characteristic m/z in the low energy function allows identification through the fragment ions obtained with the high collision energy function. Two functions were acquired at different collision energies: a low energy function obtained at 2 eV; and a high-energy function obtained using a collision energy ramp ranging from 15 to 30 eV and spectra data collected between m/z 50 and 800. The data station operating the software was a MassLynx version 4.1, while metabolites were identified by means of Metabolynx XS (Waters, Micromass, Manchester, UK).
In this work the following routes were selected for these searches: phase I metabolites Reduction (+H2), Hydroxylation (O), Hydration (+H2O), 2xHydroxylation (+O2), Deacetylation (-C2H2O) and Demethylation (-CH2); and phase II metabolites Acetylation (+C2H2O) and Glucuronide (+C6H8O6).

With NCc1ccccc1 [RC 1] the “Embryos in which the LCM compound is present” value (Maternal Dose 10 mg/kg) was “Embryo1 and 2”, the “presence in the serum of mothers” value was “detected in the serum of all mothers” and the “number of embryos in which detected” value (embryo from a dam treated with 10 mg/kg LCM) was 1.

In the case of CC(=O)N[C@H](CO)C(=O)NCc1ccccc1 [desmethylacosamide], the “presence in samples from dams” value (dams that received 120 mg/kg LCM) is reported as “some samples from the corresponding dams contained”.

For CC(=O)N[C@H](CO)C(=O)NCc1ccccc1 [RC 2, O-Demethyl LCM], the “Embryos in which the LCM compound is present” value (Maternal Dose 10 mg/kg) was “Embryo1 and 2”, the “Embryos in which the LCM compound is present” value (Maternal Dose 80 mg/kg) was “Embryo 5 and 6” and the “presence in the serum of mothers” value was “detected in the serum of all mothers”. For the same compound, the “number of embryos in which detected” value (embryos from dams treated with 10 mg/kg and 80 mg/kg LCM) was 2.

With COC[C@@H](N)C(=O)NCc1ccccc1 [deacetylacosamide] the “presence in samples from mothers” value (mothers who received 10 mg/kg LCM) was “contained”.
